# From paper PMC6917776, “Discovery of a chemical probe for PRDM9” (Nature Communications, 2019)
# Where “and” joins values, the source holds several entries; their conditions need not be identical. Identical values can stand only once.
# Target: T1, PRDM9 (amino acids: 195–415) (Homo sapiens, UniProt Q9NQV7)
# T1 construct: PRDM9 (amino acids: 195–415)
# T1 sequence (Q9NQV7 195-415): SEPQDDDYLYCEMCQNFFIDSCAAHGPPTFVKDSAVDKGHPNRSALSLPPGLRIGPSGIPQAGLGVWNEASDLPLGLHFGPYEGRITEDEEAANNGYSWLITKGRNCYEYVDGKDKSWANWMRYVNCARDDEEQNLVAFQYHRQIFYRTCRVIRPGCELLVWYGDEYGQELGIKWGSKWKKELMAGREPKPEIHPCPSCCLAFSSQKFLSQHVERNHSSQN
# Assay: PRDM9 methyltransferase activity assay (3H-SAM scintillation proximity assay)
# Assay type: biochemical
# Conditions: 100 µM compound
smiles,measurement,value
COc1cc(OC)cc(-c2noc(N3CCN(C)C4(CCN(c5ccccc5)CC4)C3)n2)c1 [MRK-740-NC],"PRDM9-Activity %, single experiments",82.7625% and 75.9398%
